Laboratory results taken from patent US12577231B2, “Androgen receptor PROTACS” (GlaxoSmithKline Intellectual Property Development Limited, priority 2023, dated 2026).

Each compound was assayed against T1, Androgen Receptor dual T878A/L702H mutant protein (Homo sapiens, UniProt P10275, L702H/T878A) (assay: Dual Mutant (T878A/L702H) Androgen Receptor Degradation Assay (HTRF, MDA-PCa-2b cells)). Settings: 18 h, 18 h incubation, read-out: mean asymptote max.
T1 construct: host or cells: MDA-PCa-2b
T1 sequence (P10275 1-920 L702H/T878A): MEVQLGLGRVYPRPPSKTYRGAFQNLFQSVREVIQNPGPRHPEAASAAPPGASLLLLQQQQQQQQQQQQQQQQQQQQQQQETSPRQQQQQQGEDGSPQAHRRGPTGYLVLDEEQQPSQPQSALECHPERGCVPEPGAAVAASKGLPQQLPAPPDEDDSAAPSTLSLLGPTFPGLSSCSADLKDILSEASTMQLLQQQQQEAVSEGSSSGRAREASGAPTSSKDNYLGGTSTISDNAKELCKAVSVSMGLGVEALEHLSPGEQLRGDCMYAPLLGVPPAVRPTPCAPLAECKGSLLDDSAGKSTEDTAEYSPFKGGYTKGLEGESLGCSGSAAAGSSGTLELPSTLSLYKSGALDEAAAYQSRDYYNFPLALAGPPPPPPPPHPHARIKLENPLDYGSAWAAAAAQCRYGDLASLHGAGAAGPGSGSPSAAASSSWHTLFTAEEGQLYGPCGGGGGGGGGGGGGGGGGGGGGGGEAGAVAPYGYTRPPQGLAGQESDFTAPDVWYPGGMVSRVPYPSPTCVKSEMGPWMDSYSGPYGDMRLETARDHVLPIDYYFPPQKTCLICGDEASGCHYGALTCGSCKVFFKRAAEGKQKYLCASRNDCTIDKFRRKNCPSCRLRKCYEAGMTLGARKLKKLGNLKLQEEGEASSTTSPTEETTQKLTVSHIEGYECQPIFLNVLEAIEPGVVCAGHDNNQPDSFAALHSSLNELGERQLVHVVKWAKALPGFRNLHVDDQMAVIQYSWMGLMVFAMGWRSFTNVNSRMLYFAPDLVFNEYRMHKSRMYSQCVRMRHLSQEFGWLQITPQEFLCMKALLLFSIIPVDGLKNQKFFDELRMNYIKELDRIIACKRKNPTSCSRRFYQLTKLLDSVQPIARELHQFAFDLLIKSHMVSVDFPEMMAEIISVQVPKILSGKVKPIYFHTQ
Format: cell-based
Procedure, shortened: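 PROTACs tested as 11-point, 3-fold dilutions on 10,000 cells for 18 h at 37 °C. Remaining AR read by HTRF (665/620 nm ratio) after lysis, normalised to DMSO-treated cells (0%) and cell-free medium (100%). Relative DC50 from 4-parameter fit inflection, absolute DC50 interpolated at 50% degradation; Dmax is maximum observed degradation.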

Structure (SMILES)	Dmax [%]
CC1(C)[C@H](NC(=O)c2ccc(N3CCC(CN4CC[C@@H](n5ncc6c(N7CCC(=O)NC7=O)cccc65)[C@@H](F)C4)CC3)c(F)c2)C(C)(C)[C@H]1Oc1ccc(C#N)c2ncccc12 [Example 45, N-((1r,3r)-3-((8-Cyanoquinolin-5-yl)oxy)-2,2,4,4-tetramethylcyclobutyl)-4-(4-(((35,4R)-4-(4-(2,4-dioxotetrahydropyrimidin-1(2H)-yl)-1H-indazol-1-yl)-3-fluoropiperidin-1-yl)methyl)piperidin-1-yl)-3-fluorobenzamide]	49
CC1(C)[C@H](NC(=O)c2ccc(N3CCC(O)(CN4CCC(n5ncc6c(N7CCC(=O)NC7=O)cccc65)CC4)CC3)c(F)c2)C(C)(C)[C@H]1Oc1ccc(C#N)c2ncccc12 [Example 48, N-((1r,3r)-3-((8-Cyanoquinolin-5-yl)oxy)-2,2,4,4-tetramethylcyclobutyl)-4-(4-((4-(4-(2,4-dioxotetrahydropyrimidin-1(2H)-yl)-1H-indazol-1-yl)piperidin-1-yl)methyl)-4-hydroxypiperidin-1-yl)-3-fluorobenzamide]	≥ 50
CC1(C)[C@H](NC(=O)c2ccc(N3CCC(CN4CCC(n5ccc6c(N7CCC(=O)NC7=O)cccc65)CC4)CC3)c(F)c2)C(C)(C)[C@H]1Oc1ccc(C#N)c2ncccc12 [Example 31, N-((1r,3r)-3-((8-Cyanoquinolin-5-yl)oxy)-2,2,4,4-tetramethylcyclobutyl)-4-(4-((4-(4-(2,4-dioxotetrahydropyrimidin-1(2H)-yl)-1H-indol-1-yl)piperidin-1-yl)methyl)piperidin-1-yl)-3-fluorobenzamide]	≥ 50
CC1(C)[C@H](NC(=O)c2ccc(N3CCC(CN4CCC(n5ccc6c(N7CCC(=O)NC7=O)cccc65)CC4)CC3)cc2)C(C)(C)[C@H]1Oc1ccc(C#N)c2ncccc12 [Example 43, N-((1r,3r)-3-((8-Cyanoquinolin-5-yl)oxy)-2,2,4,4-tetramethylcyclobutyl)-4-(4-((4-(4-(2,4-dioxotetrahydropyrimidin-1(2H)-yl)-1H-indol-1-yl)piperidin-1-yl)methyl)piperidin-1-yl)benzamide]	≥ 50
CC1(C)[C@H](NC(=O)c2ccc(N3CCC4(CC3)CC(N3CCC(n5ncc6c(N7CCC(=O)NC7=O)cccc65)CC3)C4)c(F)c2)C(C)(C)[C@H]1Oc1ccc(C#N)c2ncccc12 [Example 49, N-((1r,3r)-3-((8-Cyanoquinolin-5-yl)oxy)-2,2,4,4-tetramethylcyclobutyl)-4-(2-(4-(4-(2,4-dioxotetrahydropyrimidin-1(2H)-yl)-1H-indazol-1-yl)piperidin-1-yl)-7-azaspiro[3.5]nonan-7-yl)-3-fluorobenzamide]	≥ 50
CC1(C)[C@H](NC(=O)c2ccc(N3CCC(CN4CCC(n5ccc6c(N7CCC(=O)NC7=O)cc(F)cc65)CC4)CC3)c(F)c2)C(C)(C)[C@H]1Oc1ccc(C#N)c2ncccc12 [Example 32, N-((1r,3r)-3-((8-Cyanoquinolin-5-yl)oxy)-2,2,4,4-tetramethylcyclobutyl)-4-(4-((4-(4-(2,4-dioxotetrahydropyrimidin-1(2H)-yl)-6-fluoro-1H-indol-1-yl)piperidin-1-yl)methyl)piperidin-1-yl)-3-fluorobenzamide]	≥ 50
CC1(C)[C@H](NC(=O)c2ccc(N3CCC(CN4CCC(n5ncc6c(N7CCC(=O)NC7=O)cc(Cl)cc65)CC4)CC3)c(F)c2)C(C)(C)[C@H]1Oc1ccc(C#N)c2ncccc12 [Example 41, 4-(4-((4-(6-Chloro-4-(2,4-dioxotetrahydropyrimidin-1(2H)-yl)-1H-indazol-1-yl)piperidin-1-yl)methyl)piperidin-1-yl)-/-((1r,3r)-3-((8-cyanoquinolin-5-yl)oxy)-2,2,4,4-tetramethylcyclobutyl)-3-fluorobenzamide]	≥ 50
CC1(C)[C@H](NC(=O)c2ccc(N3CCC(CN4CC[C@H](n5ncc6c(N7CCC(=O)NC7=O)cccc65)[C@H](F)C4)CC3)c(F)c2)C(C)(C)[C@H]1Oc1ccc(C#N)c2ncccc12 [Example 46, N-((1r,3r)-3-((8-Cyanoquinolin-5-yl)oxy)-2,2,4,4-tetramethylcyclobutyl)-4-(4-(((3R,4S)-4-(4-(2,4-dioxotetrahydropyrimidin-1(2H)-yl)-1H-indazol-1-yl)-3-fluoropiperidin-1-yl)methyl)piperidin-1-yl)-3-fluorobenzamide]	≥ 50
CC1(C)[C@H](NC(=O)c2ccc(N3CCC(CN4CCC(n5ncc6c(N7CCC(=O)NC7=O)ccnc65)CC4)CC3)c(F)c2)C(C)(C)[C@H]1Oc1ccc(C#N)c2ncccc12 [Example 40, N-((1r,3r)-3-((8-Cyanoquinolin-5-yl)oxy)-2,2,4,4-tetramethylcyclobutyl)-4-(4-((4-(4-(2,4-dioxotetrahydropyrimidin-1(2H)-yl)-1H-pyrazolo[3,4-b]pyridin-1-yl)piperidin-1-yl)methyl)piperidin-1-yl)-3-fluorobenzamide]	≥ 50
CC1(C)[C@H](NC(=O)c2ccc(N3CCC(CN4CCC(n5ccc6c(N7CCC(=O)NC7=O)c(F)ccc65)CC4)CC3)c(F)c2)C(C)(C)[C@H]1Oc1ccc(C#N)c2ncccc12 [Example 51, N-((1r,3r)-3-((8-Cyanoquinolin-5-yl)oxy)-2,2,4,4-tetramethylcyclobutyl)-4-(4-((4-(4-(2,4-dioxotetrahydropyrimidin-1(2H)-yl)-5-fluoro-1H-indol-1-yl)piperidin-1-yl)methyl)piperidin-1-yl)-3-fluorobenzamide]	≥ 50

The next lines start with the values.

Dmax [%]	Structure (SMILES)
≥ 50	CC1(C)[C@H](NC(=O)c2ccc(N3CCC(CN4CCC(n5ncc6c(N7CCC(=O)NC7=O)cccc65)CC4)CC3)c(Cl)c2)C(C)(C)[C@H]1Oc1ccc(C#N)c2ncccc12 [Example 44, 3-Chloro-N-((1r,3r)-3-((8-cyanoquinolin-5-yl)oxy)-2,2,4,4-tetramethylcyclobutyl)-4-(4-((4-(4-(2,4-dioxotetrahydropyrimidin-1(2H)-yl)-1H-indazol-1-yl)piperidin-1-yl)methyl)piperidin-1-yl)benzamide]
≥ 50	CC1(C)[C@H](NC(=O)c2ccc(N3CC[C@H](CN4CCC(n5ncc6c(N7CCC(=O)NC7=O)cccc65)CC4)C3)c(F)c2)C(C)(C)[C@H]1Oc1ccc(C#N)c2ncccc12 [Example 34, N-((1r,3R)-3-((8-Cyanoquinolin-5-yl)oxy)-2,2,4,4-tetramethylcyclobutyl)-4-((R)-3-((4-(4-(2,4-dioxotetrahydropyrimidin-1(2H)-yl)-1H-indazol-1-yl)piperidin-1-yl)methyl)pyrrolidin-1-yl)-3-fluorobenzamide]
≥ 50	CC1(C)[C@H](NC(=O)c2ccc(N3CCC(CN4CCC(n5ncc6c(N7CCC(=O)NC7=O)cccc65)CC4)CC3)c(F)c2)C(C)(C)[C@H]1Oc1ccc(C#N)c2c1CCCO2 [Example 8, N-((1r,3r)-3-((8-Cyanochroman-5-yl)oxy)-2,2,4,4-tetramethylcyclobutyl)-4-(4-((4-(4-(2,4-dioxotetrahydropyrimidin-1(2H)-yl)-1H-indazol-1-yl)piperidin-1-yl)methyl)piperidin-1-yl)-3-fluorobenzamide]
≥ 50	CC1(C)[C@H](NC(=O)c2ccc(N3CCC(CN4CCC(n5ccc6c(N7CCC(=O)NC7=O)ncnc65)CC4)CC3)cc2)C(C)(C)[C@H]1Oc1ccc(C#N)c2ncccc12 [Example 28, N-((1r,3r)-3-((8-Cyanoquinolin-5-yl)oxy)-2,2,4,4-tetramethylcyclobutyl)-4-(4-((4-(4-(2,4-dioxotetrahydropyrimidin-1(2H)-yl)-7H-pyrrolo[2,3-d]pyrimidin-7-yl)piperidin-1-yl)methyl)piperidin-1-yl)benzamide]
≥ 50	CC1(C)[C@H](NC(=O)c2ccc(N3CCC(CN4CCC(n5ncc6c(N7CCC(=O)NC7=O)cc(C(F)(F)F)cc65)CC4)CC3)c(F)c2)C(C)(C)[C@H]1Oc1ccc(C#N)c2ncccc12 [Example 42, N-((1r,3r)-3-((8-Cyanoquinolin-5-yl)oxy)-2,2,4,4-tetramethylcyclobutyl)-4-(4-((4-(4-(2,4-dioxotetrahydropyrimidin-1(2H)-yl)-6-(trifluoromethyl)-1H-indazol-1-yl)piperidin-1-yl)methyl)piperidin-1-yl)-3-fluorobenzamide]
≥ 50	CC1(C)[C@H](NC(=O)c2ccc(N3CCC(CN4CCC(n5ncc6c(N7CCC(=O)NC7=O)c(F)ccc65)CC4)CC3)c(F)c2)C(C)(C)[C@H]1Oc1ccc(C#N)c2ncccc12 [Example 50, N-((1r,3r)-3-((8-Cyanoquinolin-5-yl)oxy)-2,2,4,4-tetramethylcyclobutyl)-4-(4-((4-(4-(2,4-dioxotetrahydropyrimidin-1(2H)-yl)-5-fluoro-1H-indazol-1-yl)piperidin-1-yl)methyl)piperidin-1-yl)-3-fluorobenzamide]
